According to patent publication US9867795B2, “Nitrated lipids and methods of making and using thereof” (The UAB Research Foundation, priority 2004, dated 2018):
Where two headings read alike, the source gives them in different places. One block for each molecule: values may come before it.

Assays:
[1] = molecular target: T1, hPPARγ (Homo sapiens, UniProt P37231); assay: CV-1 PPRE×3 TK-Luciferase transient transfection assay; assay type: cell-based; conditions: for PPARγ-dependent reporter gene expression by LNO2 decay products, oxidized linoleic acid derivatives and •NO donors: PPARγ-transfected CV-1 cells, FIG. 8C; for activation of PPARγ reporter gene expression compared with vehicle control: 1 and 3 μM, CV-1 cells, PPRE reporter
T1 construct: For assessing full-length PPAR receptors, CV-1 cells were transiently co-transfected; expressed in transfected cells; host or cells: CV-1 cells
T1 sequence (P37231 1-505): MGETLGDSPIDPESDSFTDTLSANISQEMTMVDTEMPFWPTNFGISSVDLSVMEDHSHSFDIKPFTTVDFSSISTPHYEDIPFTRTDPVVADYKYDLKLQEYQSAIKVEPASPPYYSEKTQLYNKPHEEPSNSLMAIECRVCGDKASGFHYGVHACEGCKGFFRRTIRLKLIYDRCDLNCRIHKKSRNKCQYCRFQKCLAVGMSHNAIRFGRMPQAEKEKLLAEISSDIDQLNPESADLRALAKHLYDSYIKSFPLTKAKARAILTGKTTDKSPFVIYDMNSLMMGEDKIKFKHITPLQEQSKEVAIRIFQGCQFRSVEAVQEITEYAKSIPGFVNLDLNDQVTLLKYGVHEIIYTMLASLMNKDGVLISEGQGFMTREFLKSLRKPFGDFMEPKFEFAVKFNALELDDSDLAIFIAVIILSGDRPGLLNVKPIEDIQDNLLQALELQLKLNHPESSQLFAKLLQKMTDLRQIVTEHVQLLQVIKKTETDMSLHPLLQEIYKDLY
Text: Cell Transient Transfection Assay. […] Then, cells were transiently co-transfected with a plasmid containing the luciferase gene under regulation by four Gal4 DNA binding elements (UASG×4 TK-Luciferase, a gift from Dr. Ronald M. Evans), in concert with plasmids containing the ligand binding domain for the different nuclear receptors fused to the Gal4 DNA binding domain. For assessing full-length PPAR receptors, CV-1 cells were transiently co-transfected with a plasmid containing the luciferase gene under the control of three tandem PPAR response elements (PPRE) (PPRE×3 TK-Luciferase) and hPPARγ, hPPARα or hPPARδ expression plasmids, respectively. In all cases, fluorescence protein (GFP) expression plasmid was co-transfected as the control for the transfection efficiency. Twenty-four hours after the transfection, cells were cultured for another 24 hours in Optium-MEM (Invitrogen, Carlsbad, Calif.). Then, cells were treated with different compounds as indicated in figures for 24 hours in Optium-MEM. Reporter luciferase assay kits from Promega (Madison, Wis.) were used to measure the luciferase activity according to the manufacturer's instructions with a luminometer (Victor II, Perkin-Elmer). Luciferase activity was normalized by GFP units. Each condition was performed at least in triplicates in each experiment.
PPAR transient transfection assay. […] Twelve hours before transfection, the media was removed and antibiotic-free media was applied. Cells were transiently co-transfected with a plasmid containing the luciferase gene under the control of three tandem PPAR response elements (PPRE) (PPRE×3 TK-Luciferase) and PPARγ, PPARα or PPARδ expression plasmids, respectively. In all cases, fluorescence protein (GFP) expression plasmid was co-transfected as the control for transfection efficiency. Twenty-four hours after transfection, cells the returned to OptiMEM (Invitrogen, Carlsbad, Calif.) for 24 hr and then treated as indicated for another 24 hr. Reporter luciferase assay kits from Promega (Madison, Wis.) were used to measure the luciferase activity according to the manufacturer's instructions with a luminometer (Victor II, Perkin-Elmer). Luciferase activity was normalized by GFP units. Each condition was performed in triplicate in each experiment (n>3).

[2] = system: 3T3-L1 preadipocytes
[3] = molecular target: T2, Human PPARγ1 (GST-PPARγ) (Homo sapiens, UniProt P37231); assay: PPARγ competition binding assay ([^3H]Rosiglitazone displacement); conditions: calculated / estimated
T2 sequence (P37231 1-477 isoform P37231-2): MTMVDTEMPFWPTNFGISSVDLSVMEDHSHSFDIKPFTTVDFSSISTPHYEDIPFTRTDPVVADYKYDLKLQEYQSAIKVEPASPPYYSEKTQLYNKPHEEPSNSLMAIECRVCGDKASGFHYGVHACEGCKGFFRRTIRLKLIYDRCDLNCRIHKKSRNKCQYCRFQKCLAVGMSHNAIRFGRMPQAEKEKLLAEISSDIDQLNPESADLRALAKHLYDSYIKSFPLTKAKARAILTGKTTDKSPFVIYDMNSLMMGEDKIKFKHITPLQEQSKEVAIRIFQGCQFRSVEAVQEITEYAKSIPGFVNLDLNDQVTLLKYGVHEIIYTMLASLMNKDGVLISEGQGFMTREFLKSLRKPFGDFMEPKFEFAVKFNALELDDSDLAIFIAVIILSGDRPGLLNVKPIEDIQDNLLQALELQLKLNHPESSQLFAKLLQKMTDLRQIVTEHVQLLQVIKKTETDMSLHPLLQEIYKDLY
Procedure: PPARγ Competition Binding Assay. Human PPARγ1 cDNA was inserted into pGEX from Amersham Biosciences Corp (Piscataway, N.J.) containing the gene encoding glutathione S-transferase (GST). GST-PPARγ protein induction and receptor binding was assessed as previously described (17).

[4] = system: human vascular endothelial cells and macrophages; assay: Whole Human Genome Oligo Array gene expression; assay type: cell-based; conditions: 24 hours; LNO2O 2.5 mM, linoleic acid 2.5 μM
Procedure: The nitroalkenes of the present invention also display regulatory actions towards the expression of genes related to inflammatory responses, cell growth, cell differentiation, cell signaling, cell death (apoptosis) and metabolism. For example, nitrolinoleate regulates gene expression in human vascular endothelial cells and macrophages. Cells were stimulated with vehicle and linoleic acid (2.5 μM, the latter two treatments as controls) and LNO2O ([…]) for 24 hours. The total RNA was purified with a Qiagen Kit and analyzed with a Whole Human Genome Oligo Array (G4112A, 41K Genes, Agilent). […] In contrast, the native (precursor) fatty acid, linoleic acid, only regulates 14 genes, with an up-regulation of 5 genes and the down-regulation of 9 genes.

[5] = system: NF-kB pathways; assay: NF-kB pathway activity (NFkB-response element luciferase reporter, IkB degradation); assay type: cell-based; conditions: reporter in response to TNFa; IkB degradation in response to E. coli LPS
[6] = molecular target: T2, Human PPARγ1 (GST-PPARγ); conditions: read-out: previously reported Ki for PPARγ; cited from earlier work

PPARγ-dependent reporter gene expression by LNO2 decay products, oxidized linoleic acid derivatives and •NO donors [1]: no effect
Compound: CCCCCC(=O)/C=C/C=C\CCCCCCCC(=O)O [13-oxoODE]

activation of PPARγ reporter gene expression compared with vehicle control [1]: no significant activation
Compound: CCCCCCC=CC=CCCCCCCCC(=O)O [CLA1, Δ^9,11-conjugated linoleic acid]

activation of PPARγ reporter gene expression compared with vehicle control [1]: no significant activation
Ki [3]: > 1 µM
activity of NF-kB pathways [5]: not
Compound: CCCCC/C=C\C/C=C\CCCCCCCC(=O)O [linoleic acid, reference compound]
number of genes down-regulated [4]: 9 genes
number of genes regulated [4]: 14 genes
number of genes up-regulated [4]: 5 genes
Ki [6]: 1.7 to 17 µM
expression of adipocyte markers (PPARγ2 and aP2) ([2]; immunoblot of cell lysate): not detected

activation of PPARγ reporter gene expression compared with vehicle control [1]: no significant activation
Compound: CCCCCCCC/C=C\CCCCCCCCOC[C@@H](O)COP(=O)(O)O [LPA-18:1, 1-O-9-(Z)-octadecenyl-2-hydroxy-sn-glycero-3-phosphate]

activation of PPARγ reporter gene expression compared with vehicle control [1]: no significant activation
Compound: CCCCCC=CC=CCCCCCCCCC(=O)O [CLA2, Δ^10,12-conjugated linoleic acid]

The remaining lines, values behind:

Compound: CCCCCCCCCCCCCCCCOC[C@H](COP(=O)([O-])OCC[N+](C)(C)C)OC(=O)CCCCCCCC(=O)O [azPC, 1-O-hexadecyl-2-azelaoyl-sn-glycero-3-phosphocholine]
activation of PPARγ reporter gene expression compared with vehicle control [1]: no significant activation

Compound: CCCCCCCCCCCCCCCC(=O)OC[C@H](COP(=O)([O-])OCC[N+](C)(C)C)OC(=O)CCCCCCCC(=O)O [azPC ester, 1-Palmitoy-2-Azelaoyl-sn-Glycero-3-Phosphocholine]
activation of PPARγ reporter gene expression compared with vehicle control [1]: no significant activation

Compound: CCCCCCCCC=CCCCCCCCC(=O)O [oleic acid, 9-Octadecenoic acid, reference compound]
adipogenesis / adipocyte differentiation (morphology, oil red O) ([2]; two weeks, Rosiglitazone 3 μM, linoleic acid 10 μM, oleic acid 3 μM): did not induce adipogenesis

Compound: CCCCC/C=C\C=C\C(=O)CCCCCCCC(=O)O [9-oxoODE]
PPARγ-dependent reporter gene expression by LNO2 decay products, oxidized linoleic acid derivatives and •NO donors [1]: modest PPARγ activation
